Here are results for 83 compounds from patent US20190110476A1, “NOVEL ISOTHIAZOLAMIDES, PROCESSES FOR THEIR PREPARATION AND THEIR USE AS FUNGICIDES” (priority 2014, published 2019).

As usually defined, the chromatographic logP is lipophilicity estimated from chromatographic retention.

Structures are written as SMILES. Marks after values point to notes of the source that are not given here.

The nature of one data set: Measurement of LogP values by HPLC on reversed phase columns (EEC directive 79/831 Annex V.A8).
Conditions: not given
Format: physicochemical. A digest of the protocol:
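LogP measured by reversed-phase HPLC following EEC directive 79/831 Annex V.A8. Lambda-max taken from UV spectra at 200–400 nm at chromatographic peak maxima; diastereoisomer values listed separately.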
As to `Nc1cc(C(=O)NCc2cccc(Cl)c2Cl)sn1` [I-308], the LogP was 2.02[a].

With `COc1ccc(CNc2nsc(C(=O)Nc3ccccc3C#N)c2Cl)cc1` [I-881], the LogP was 3.62[a].

`COc1ccc(CNc2nsc(C(=O)NC3(c4ccccc4Cl)CC3)c2Cl)cc1` [I-1327]: the LogP was 4.24[a].

Turning to `COc1ccc(CNc2nsc(C(=O)NCc3ccc(Cl)c(OC)c3)c2Cl)cc1` [I-390], the LogP is 3.76[a].

For the compound `COc1ccc(CNC(=O)c2snc(N)c2Cl)cc1F` [I-240], the LogP was 1.91[a].

Take `Nc1nsc(C(=O)Nc2cccc(F)c2)c1Cl` [I-865]: the LogP is 2.07[a].

`COc1ccc(CNc2nsc(C(=O)NC(C)c3ccc(OC)c(OC)c3)c2Cl)cc1` (stereo not shown) [I-1348]: the LogP was 3.25[a].

On to `COc1ccc(CNc2nsc(C(=O)N(Cc3c(F)cccc3Cl)C3CC3)c2Cl)cc1` [I-933], for which the LogP is 4.44[a].

As for `Nc1nsc(C(=O)NCC2CCCCC2)c1Br` [I-539], the LogP is 2.51[a].

Regarding `COc1ccc(CNc2nsc(C(=O)N(C3CC3)C(C)c3ccccc3C(F)(F)F)c2Cl)cc1` (stereo not shown) [I-949], the LogP is 4.83[a].

On to `COc1cc(F)ccc1CNC(=O)c1snc(N)c1Cl` [I-782], for which the LogP is 2.02[a].

As for `O=C(NC1CCCC2CCCCC21)c1snc(N=CN2CCCC2)c1Cl` (stereo not shown) [II-036], the “LogP [a]” value was 3.52^[a].

Take `CCOC(=O)c1cccc(CNC(=O)c2snc(N)c2Cl)c1` [I-1307]: the LogP was 2.03[a].

For `CC1(C)C2CCC1(C)C(NC(=O)c1snc(Cl)c1Cl)C2` (stereo not shown) [E-II-022], the “LogP [a]” value amounted to 5.07 and the “LogP [b]” value worked out at 4.94.

Regarding `COc1ccc(CNc2nsc(C(=O)N3CCCc4cccc(C)c43)c2Cl)cc1` [II-067], the “LogP [a]” value came to 4.24 and the “LogP [b]” value turned out to be 4.14.

In the case of `Nc1nsc(C(=O)NC2CCCC3CCCCC32)c1Cl` (stereo not shown) [I-621], the LogP was 3.39[a].

As for `CCc1ccccc1C(C)N(C(=O)c1snc(NCc2ccc(OC)cc2)c1Cl)C1CC1` (stereo not shown) [I-874], the LogP is 5.14[a].

Turning to `COc1ccc(CNc2nsc(C(=O)OC(C)C)c2NCc2ccc(OC)cc2)cc1` [E-VII-063], the “LogP [a]” value is listed as 4.56 and the “LogP [b]” value is 4.51.

For the compound `COc1ccc(CNc2nsc(C(=O)NCc3ccc(C#N)cc3)c2Cl)cc1` [I-1555], the LogP is 3.23[a].

With `COc1ccc(CNc2nsc(C(=O)NCCCn3ccnc3C)c2Cl)cc1` [I-1263], the LogP is 1.44[a].

In the case of `Nc1nsc(C(=O)NCc2c(F)cc(F)cc2F)c1Cl` [I-134], the LogP was 1.96[a].

`CC(C)c1ccccc1CN(C(=O)c1snc(N)c1Cl)C1CC1` [I-118]: the LogP was 3.33[a].

For the compound `C[C@@H]1CCCC[C@H]1NC(=O)c1snc(N)c1Br` (relative stereo) [I-839], the LogP is 2.49[a].

Consider `C#CC1(NC(=O)c2snc(NCc3ccc(OC)cc3)c2Cl)CCCCC1` [I-1209], for which the LogP is 3.99[a].

Regarding `COc1ccc(CNc2nsc(C(=O)Nc3ccc(C)c(Cl)c3)c2Cl)cc1` [I-882], the LogP was 4.63[a].

As for `COc1ccc(CNc2nsc(C(=O)NCc3cncc(OC)c3)c2Cl)cc1` [I-1342], the LogP is 1.89[a].

As to `Nc1nsc(C(=O)Nc2cccc3c2CCC3)c1Cl` [I-926], the LogP was 2.75[a].

Take `Nc1nsc(C(=O)NC2(c3ccc(F)cc3)CC2)c1Cl` [I-023]: the LogP is 2.02[a].

Regarding `Nc1nsc(C(=O)NCc2cc(F)cc(F)c2F)c1Cl` [I-130], the LogP is 2.03[a].

As for `COc1ccc(CNc2nsc(C(=O)NCc3ccc(OC)cn3)c2Cl)cc1` [I-1318], the LogP is 2.45[a].

On to `CC(C)(C)C(=O)Nc1nsc(C(=O)NCC2CCCCC2)c1Cl` [I-172], for which the LogP was 3.18[a].

`CC(C)CNC(=O)c1snc(N)c1Cl` [I-1018]: the LogP is 1.55[a].

For `Nc1nsc(C(=S)NCc2c(F)cc(F)cc2F)c1Cl` [I-1015], the LogP was 2.86[a].

Regarding `CC1CCC(C)(CNC(=O)c2snc(N)c2Cl)CC1` (stereo not shown) [I-835], the LogP is 3.17[a].

Consider `O=C(NCC1CCOCC1)c1snc(N=C(c2ccccc2)c2ccccc2)c1Cl` [II-006], for which the “LogP [a]” value was 3.60^[a].

Turning to `COc1ccc(CNc2nsc(C(=O)NCc3cnn(CC(C)C)c3C)c2Cl)cc1` [I-1262], the LogP was 3.21[a].

For `O=C(NC1CCCC2CCCCC21)c1snc(NCc2ccccc2)c1Cl` (stereo not shown) [I-046], the LogP was 5.23[a].

In the case of `Nc1cc(C(=O)N(Cc2ccccc2)C2CC2)sn1` [I-978], the LogP was 2.02[a].

`Cc1ccc(F)cc1CNC(=O)c1snc(N)c1Cl` [I-127]: the LogP was 2.08[a].

`Nc1nsc(C(=O)NCC2CCCCC2C(F)(F)F)c1Cl` (stereo not shown) [I-1554]: the LogP was 2.51[a].

`Nc1nsc(C(=O)N2CCc3c(Cl)ccc(Cl)c3C2)c1Cl` [II-022]: the “LogP [a]” value stood at 2.88 and the “LogP [b]” value is listed as 2.82.

For the compound `COc1ccc(CNc2nsc(C(=O)N(CC3C(C)CCCC3(C)C)C3CC3)c2Cl)cc1` (stereo not shown) [I-859], the LogP is 6.09[a].

Consider `O=C(NCC1CCCCC1)c1snc(N=S2CCOCC2)c1Cl` [II-090], for which the “LogP [a]” value was 2.49^[a].

Regarding `COc1ccc(CNC(=O)c2cc(N)ns2)cn1` [I-099], the LogP is 0.86[a].

Take `Nc1nsc(C(=O)NCCC2CCCCC2)c1Cl` [I-850]: the LogP was 2.92[a].

As to `CC1CCC(C(C)C)C(NC(=O)c2snc(Cl)c2Cl)C1` (stereo not shown) [E-II-024], the “LogP [a]” value turned out to be 5.72 and the “LogP [b]” value was found to be 5.64.

Turning to `Nc1nsc(C(=O)NCC2CCCCC2)c1N` [I-1539], the LogP is 1.37[a].

On to `CCOc1c(N)nsc1C(=O)NCC1CCCCO1` (stereo not shown) [I-729], for which the LogP is 1.66[a].

For the compound `Nc1nsc(C(=O)NCc2cc(Cl)ccc2Cl)c1Cl` [I-416], the LogP was 2.71[a].

Take `O=C(c1cc(N(Cc2ccccc2)Cc2ccccc2)ns1)N(Cc1c(F)cccc1Cl)C1CC1` [I-911]: the LogP is 5.54[a].

As to `CC(C)(C)OC(=O)Nc1nsc(C(=O)NCC2CCCCC2Cl)c1F` (stereo not shown) [I-1572], the LogP is 3.34[a].

In the case of `COc1ccc(CNc2nsc(C(=O)NCC3(OC)CCC(C)CC3)c2Cl)cc1` (stereo not shown) [I-823], the LogP was 4.33[a].

With `C#CCOC(=O)Nc1nsc(C(=O)N[C@@H](C)C2CCCCC2)c1Cl` [I-137], the LogP was 3.17[a].

As to `CC1(C)CC(CNC(=O)c2snc(N)c2Br)C1` [I-842], the LogP is 2.60[a].

As for `Nc1nsc(C(=O)NC(Cc2ccccc2)C2CCCCC2)c1Cl` (stereo not shown) [I-1095], the LogP was 3.55[b].

With `C[C@H](NC(=O)c1snc(N(Cc2ccccc2)Cc2ccccc2)c1C(F)F)C1CCCCC1` [I-263], the LogP is 6.20[a].

As to `COc1ccc(CNc2nsc(C(=O)NCc3cc(OC)ccc3OC)c2Cl)cc1` [I-1230], the LogP was 3.59[a].

For `CCC(c1cc(Cl)cc(Cl)c1)N(C(=O)c1snc(NCc2ccc(OC)cc2)c1Cl)C1CC1` (stereo not shown) [I-936], the LogP is 5.81[a].

Take `COc1ccc(CNc2nsc(C(=O)NC(C)Cc3ccco3)c2Cl)cc1` (stereo not shown) [I-1239]: the LogP was 3.55[a].

On to `COc1ccc(CNc2nsc(C(=O)NCc3cccs3)c2Cl)cc1` [I-1241], for which the LogP was 3.31[a].

Consider `COc1ccc(CNc2nsc(C(=O)NCCc3ccc(F)cc3)c2Cl)cc1` [I-961], for which the LogP is 3.72[a].

In the case of `Nc1nsc(C(=O)NCC2CCCC2O)c1Cl` (single isomer, unassigned) [I-773], the LogP is 0.88[a].

In the case of `Cc1c(N)nsc1C(=O)NCc1c(F)cccc1Cl` [I-587], the LogP is 1.61[a].

With `C[C@H](NC(=O)c1cc(N)ns1)C1CCCCC1` [I-006], the LogP is 2.09[a].

For `O=C(c1cc(N(Cc2ccccc2)Cc2ccccc2)ns1)N(Cc1cc(Cl)cc(C(F)(F)F)c1)C1CC1` [I-943], the LogP is 6.16[a].

Consider `Nc1nsc(C(=O)NCc2ccccc2Cl)c1Cl` [I-009], for which the LogP was 2.12[a].

As to `Nc1nsc(C(=O)NCc2ccc(C3CC3)cc2)c1C1CC1` [I-606], the LogP is 2.48[a].

With `COc1ccc(CNc2nsc(C(=O)NCc3cnccn3)c2Cl)cc1` [I-1231], the LogP is 2.26[a].

For the compound `CCC1(CNC(=O)c2snc(N)c2Cl)CCCCC1` [I-836], the LogP was 3.20[a].

In the case of `COc1ccc(CNc2nsc(C(=O)N(Cc3ccc(Cl)cc3Cl)C3CC3(C)C)c2Cl)cc1` (stereo not shown) [I-945], the LogP was 5.87[a].

As for `C[C@H](NC(=O)c1snc(N)c1Br)C1CCCCC1` [I-818], the LogP was 2.84[a].

Consider `COc1ccc(CNc2nsc(C(=O)NC(C)c3ccc(Cl)cc3Cl)c2Cl)cc1` (stereo not shown) [I-1256], for which the LogP was 4.61[a].

Consider `Cc1ccc(F)c(CN(C(=O)c2cc(N)ns2)C2CC2)c1` [I-995], for which the LogP is 2.44[a].

As for `CC(=O)Nc1nsc(C(=O)NCc2ccc(Cl)cc2)c1Cl` [I-570], the LogP was 2.03[a].

For `CC(=O)Nc1nsc(C(=O)NCC2CCCCC2)c1Cl` [I-167], the LogP is 2.14[a].

With `COc1ccc(CNc2nsc(C(=O)NC(Cc3ccccc3)C3CCCCC3)c2Cl)cc1` (stereo not shown) [I-1079], the LogP is 5.10[b].

As to `O=C(NCc1c(F)cc(F)cc1F)c1snc(N=S2CCCC2)c1F` [II-081], the “LogP [a]” value is 1.39^[a].

Regarding `O=C(NCc1ccc(Cl)cc1)c1snc(N=CN2CCCC2)c1Cl` [II-030], the “LogP [a]” value is 2.17^[a].

For the compound `CN(C)C=Nc1nsc(C(=O)NCc2ccc(Cl)cc2)c1Cl` [II-031], the “LogP [a]” value is 2.41^[a].

Consider `COc1ccc(CNc2nsc(C(N)=O)c2Cl)cc1` [II-106], for which the “LogP [a]” value was 1.94^[a].

Turning to `CCC(=O)Nc1nsc(C(=O)NCc2ccc(F)cc2C)c1Cl` [I-817], the LogP is 2.15[a].

`COc1ccc(CNc2nsc(C(=O)NC3CC4CCC3(C)C4(C)C)c2Cl)cc1` (stereo not shown) [I-572]: the LogP was 5.02[a];.

The data set is the same for the next values; noted with them: HPLC LC-UV, acidic range, 0.1% formic acid in water and acetonitrile as eluent.
`O=C(O)c1snc(N(Cc2ccccc2)Cc2ccccc2)c1C1CC1` [E-VIII-008, 4-cyclopropyl-3-(dibenzylamino)isothiazole-5-carboxylic acid] gave a chromatographic logP of 4.11.
